pIC50: −log10 of the molar value.
Molecular target: T1, human NaV1.8 (Homo sapiens, UniProt Q9Y5Y9)
T1 construct: The following NaV1.8 recombinant cell line was used for recordings: HEK-NaV1.8 (NM 006514.1); expressed in transfected cells; host or cells: HEK (recombinant cell line HEK-NaV1.8)
Test: Electrophysiology: automated whole-cell voltage-clamp (patch clamp, Qube384) recordings of sodium currents in HEK-NaV1.8 cells
Type: cell-based
Conditions: potency data either taken from inactivated or resting state, read-out: Potency category (human NaV1.8 IC50)
Protocol: Electrophysiology: Voltage-Clamp Recordings
The following NaV1.8 recombinant cell line was used for recordings: HEK-NaV1.8 (NM 006514.1) with in (NM 018400.3).
Sodium currents were measured using the patch clamp technique in the whole-cell configuration using the Qube384 (Sophion A/S, Copenhagen, Denmark) automated voltage clamp platform. “Multi hole” plates were used for the cell line expressing NaV1.8 while “single hole” plates were used for the recombinant cell lines expressing the other subtypes. Appropriate filters (for minimum seal resistance and minimum current size) and series resistance compensation (for high quality sodium channel recordings) were applied. Data was collected at ambient room temperature.
The recording extracellular solution contained (in mM): NaCl 145 mM, KCl 4 mM, CaCl2 2 mM, MgCl2 1 mM, HEPES 10 mM, Glucose 10 mM, pH 7.4 (NaOH). The intracellular recording solution contained (in mM): CsF 120 mM, CsCl 20 mM, NaCl 10 mM, EGTA 10 mM, HEPES 10 mM, pH 7.2 (CsOH). Currents were recorded at 25 kHz sampling frequency and filtered at 5 kHz. Series resistance compensation was applied at 65%.
Vehicle (VEH) is the control condition where cells are exposed to 0.3% DMSO without compound. All runs include VEH controls being exposed to the same voltage protocols to assess non-compound related phenomena such as run down and then used to isolate compound dependent effects on currents.
To check for state-dependence inhibition, the following voltage-sequence was applied every 20 seconds:
From a resting membrane potential of −120 mV, the first test pulse (P1; 20 ms to −10 mV) was applied to check for channels in the Resting State followed by a brief recovery (20 ms to −120 mV), then holding the membrane voltage to V112 (4 seconds at voltage to obtain half the channel at Rest and half Inactivated) with a subsequent second test pulse (P2; 20 ms to −10 mV) to check for channels in the Inactivated State, followed by another brief recovery (20 ms to −120 mV) and a final third test pulse (P3; 20 ms to −10 mV) to check for recovered channels.
To check for frequency-dependent inhibition, a 10 Hz protocol and a 20 Hz protocol were applied; namely,
From a resting membrane potential of −120 mV, 40-pulses (10 ms to −10 mV) was applied at 10 Hz (at 100 ms between pulses) and then at 20 Hz (at 50 ms between pulses).
Each parameter was recorded (P1, P2, P3, P40 from 10 Hz and P40 from 20 Hz) during a control period (lasting 5 minutes) when establishing the baseline and during compound period (lasting ˜12 minutes) when test compound (or vehicle) was applied. For each parameter, the value at the end of the compound period was normalized to the vehicle baseline; as follows
To adjust for any variance in the Na^+ current signal during the compound period (owing to cumulative inactivation independent of compound or shifts in biophysics over time), a dedicated segment of the recording wells in each 384 plate were dedicated to having only vehicle exposure. These vehicle-only recordings were used to correct for any apparent “run-up” or “run-down” in the experiment.
The adjusted inhibition was calculated as follows: […]
Percent inhibition was determined and IC50 values were calculated using a 4 parameter logistic model within XLFit Software (IDBS, Boston MA):
[formula] where A and B are the maximal and minimum inhibition respectively, C is the IC50 concentration and D is the (Hill) slope.
The potency data was either taken from inactivated or resting state.

T1 sequence (Q9Y5Y9 whole entry): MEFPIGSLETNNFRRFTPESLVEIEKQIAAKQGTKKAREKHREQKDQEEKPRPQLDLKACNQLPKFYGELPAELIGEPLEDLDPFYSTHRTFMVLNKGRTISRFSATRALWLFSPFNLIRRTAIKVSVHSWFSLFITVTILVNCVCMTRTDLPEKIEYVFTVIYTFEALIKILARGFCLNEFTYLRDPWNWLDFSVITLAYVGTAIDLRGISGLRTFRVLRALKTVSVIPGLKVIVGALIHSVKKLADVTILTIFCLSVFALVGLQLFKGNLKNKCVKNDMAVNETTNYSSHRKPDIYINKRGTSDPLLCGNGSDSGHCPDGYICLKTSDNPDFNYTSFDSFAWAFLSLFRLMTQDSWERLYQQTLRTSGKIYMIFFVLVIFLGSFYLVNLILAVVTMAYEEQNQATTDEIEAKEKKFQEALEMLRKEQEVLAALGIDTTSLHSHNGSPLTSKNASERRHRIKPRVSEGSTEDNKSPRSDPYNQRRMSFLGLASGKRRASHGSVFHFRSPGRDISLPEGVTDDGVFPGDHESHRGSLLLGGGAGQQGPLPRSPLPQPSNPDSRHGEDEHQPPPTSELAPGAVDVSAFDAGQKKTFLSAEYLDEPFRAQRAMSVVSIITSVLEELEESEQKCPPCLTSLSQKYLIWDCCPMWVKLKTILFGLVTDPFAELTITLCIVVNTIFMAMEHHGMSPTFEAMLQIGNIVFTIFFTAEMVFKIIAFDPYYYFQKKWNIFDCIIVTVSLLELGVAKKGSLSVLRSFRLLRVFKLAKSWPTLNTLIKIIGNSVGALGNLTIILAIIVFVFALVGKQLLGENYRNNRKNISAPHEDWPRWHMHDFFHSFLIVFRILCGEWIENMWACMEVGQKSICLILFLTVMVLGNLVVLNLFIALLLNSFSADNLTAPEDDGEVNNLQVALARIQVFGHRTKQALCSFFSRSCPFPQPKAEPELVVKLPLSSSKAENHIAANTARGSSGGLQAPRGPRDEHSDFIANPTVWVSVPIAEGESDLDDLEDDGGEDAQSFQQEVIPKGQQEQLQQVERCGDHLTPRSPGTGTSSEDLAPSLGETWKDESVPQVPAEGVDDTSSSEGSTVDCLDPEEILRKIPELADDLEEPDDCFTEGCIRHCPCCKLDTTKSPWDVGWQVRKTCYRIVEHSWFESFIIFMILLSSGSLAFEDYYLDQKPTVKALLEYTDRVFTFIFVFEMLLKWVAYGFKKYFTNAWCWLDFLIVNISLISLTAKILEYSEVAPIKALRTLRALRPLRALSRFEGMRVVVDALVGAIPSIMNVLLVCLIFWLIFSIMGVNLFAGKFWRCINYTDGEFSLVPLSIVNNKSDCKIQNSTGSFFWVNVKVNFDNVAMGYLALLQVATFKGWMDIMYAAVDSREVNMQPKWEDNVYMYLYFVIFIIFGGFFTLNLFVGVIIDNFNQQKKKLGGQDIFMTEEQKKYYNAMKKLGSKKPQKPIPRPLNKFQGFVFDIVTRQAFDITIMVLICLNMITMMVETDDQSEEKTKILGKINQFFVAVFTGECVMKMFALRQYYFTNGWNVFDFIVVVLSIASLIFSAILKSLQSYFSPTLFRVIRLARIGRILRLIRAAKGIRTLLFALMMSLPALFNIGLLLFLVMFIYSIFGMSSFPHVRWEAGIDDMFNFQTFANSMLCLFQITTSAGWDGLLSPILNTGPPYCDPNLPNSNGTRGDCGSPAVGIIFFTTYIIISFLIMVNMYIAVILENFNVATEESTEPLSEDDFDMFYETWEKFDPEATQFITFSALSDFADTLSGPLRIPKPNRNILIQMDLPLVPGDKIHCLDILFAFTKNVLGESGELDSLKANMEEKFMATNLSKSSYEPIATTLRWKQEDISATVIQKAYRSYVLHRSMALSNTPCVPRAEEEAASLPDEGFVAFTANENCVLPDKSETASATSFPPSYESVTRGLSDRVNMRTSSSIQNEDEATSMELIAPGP
T1 sequence (Q9NY72 23-215 partner): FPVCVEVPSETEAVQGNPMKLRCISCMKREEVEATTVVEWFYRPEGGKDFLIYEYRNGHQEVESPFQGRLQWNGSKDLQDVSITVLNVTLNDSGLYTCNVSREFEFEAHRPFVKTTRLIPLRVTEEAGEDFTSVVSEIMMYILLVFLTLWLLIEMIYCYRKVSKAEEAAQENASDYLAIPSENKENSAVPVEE

| SMILES | pIC50 |
| --- | --- |
| NC(=O)c1cc(NC(=O)c2c(C(F)(F)F)c(C3CC3)nn2C[C@@H]2CCO[C@H]2C(F)(F)F)ccn1 (racemic) [SC-147c] | ≥ 7.00 |
| CS(=O)(=O)c1cc(NC(=O)c2c(C(F)(F)F)c(C3CC3)nn2C[C@@H]2CCO[C@H]2C(F)(F)F)ccn1 (racemic) [SC-150c] | ≥ 7.00 |
| NC(=O)c1cc(NC(=O)c2c(C(F)(F)F)c(OCC3CC3)nn2CC2CCC(F)(F)C2)ccn1 (racemic) [SC-157, 4-(3-(cyclopropylmethoxy)-1-((3,3-difluorocyclopentyl)methyl)-4-(trifluoromethyl)-1H-pyrazole-5-ca±oxamido)picolinamide] | ≥ 7.00 |
| Cc1c(C(C)(F)F)nn(CC2CC(F)(F)CC2C(F)(F)F)c1C(=O)Nc1ccnc(C(N)=O)c1 (racemic) [SC-217, 4-(1-((4,4-difluoro-2-(trifluoromethyl)cyclopentyl)methyl)-3-(1,1-difluoroethyl)-4-methyl-1H-pyrazole-5-carboxamido)picolinamide] | ≥ 7.00 |
| CS(=O)(=O)c1cc(NC(=O)c2c(C(F)(F)F)c(OC(F)F)nn2CC2CCC(F)(F)C2)ccn1 (racemic) [SC-293, 1-((3,3-difluorocyclopentyl)methyl)-3-(difluoromethoxy)-N-(2-(methylsulfonyl)pyridin-4-yl)-4-(trifluoromethyl)-1H-pyrazole-5-carboxamide] | ≥ 7.00 |
| Cc1c(C(C)(F)F)nn(C[C@@H]2C[C@@H]2C(F)F)c1C(=O)Nc1ccnc(C(N)=O)c1 (relative stereo) [SC-206, 4-(3-(1,1-difluoroethyl)-1-((2-(difluoromethyl)cyclopropyl)methyl)-4-methyl-lH-pyrazole-5-carboxamido)picolinamide] | 6.00 to 7.00 |
| COCCOC[C@@H]1CCCC[C@@H]1Cn1nc(C(C)(F)F)c(C)c1C(=O)Nc1ccnc(C(N)=O)c1 (relative stereo) [SC-223, 4-(3-(1,1-difluoroethyl)-1-((2-((2-methoxyethoxy)methyl)cyclohexyl)methyl)-4-methyl-1H-pyrazole-5-ca±oxamido)picolinamide] | ≥ 7.00 |
| Cc1c(C(F)(F)F)nn(CC2CCC(F)(F)C2)c1C(=O)Nc1ccnc(C(N)=O)c1 (single isomer, unassigned) [SC-118a] | ≥ 7.00 |
| Cc1c(C(F)(F)F)nn(CC2CCC(F)(F)C2)c1C(=O)Nc1ccnc(C(N)=O)c1 (single isomer, unassigned) [SC-118b] | ≥ 7.00 |
| NC(=O)c1cc(NC(=O)c2c(C(F)(F)F)c(C3CC3)nn2CC2CCC(F)(F)C2)ccn1 (single isomer, unassigned) [SC-129a] | ≥ 7.00 |
| NC(=O)c1cc(NC(=O)c2c(C(F)(F)F)c(C3CC3)nn2CC2CCC(F)(F)C2)ccn1 (single isomer, unassigned) [SC-129b] | ≥ 7.00 |
| NC(=O)c1cc(NC(=O)c2c(C(F)(F)F)c(C3CC3)nn2CC2CCCOC2)ccn1 (single isomer, unassigned) [SC-145a, 4-(3-Cyclopropyl-1-((tetrahydro-2H-pyran-3-yl)methyl)-4-(trifluoromethyl)-1H-pyrazole-5-carboxamido)picolinamide] | ≥ 7.00 |
| NC(=O)c1cc(NC(=O)c2c(C(F)(F)F)c(C3CC3)nn2CC2CCCOC2)ccn1 (single isomer, unassigned) [SC-145b, 4-(3-Cyclopropyl-1-((tetrahydro-2H-pyran-3-yl)methyl)-4-(trifluoromethyl)-1H-pyrazole-5-carboxamido)picolinamide] | ≥ 7.00 |
| NC(=O)c1cc(NC(=O)c2c(C(F)(F)F)c(C3CC3)nn2C[C@@H]2CCO[C@@H]2C(F)(F)F)ccn1 (single isomer, unassigned) [SC-147a] | ≥ 7.00 |
| NC(=O)c1cc(NC(=O)c2c(C(F)(F)F)c(C3CC3)nn2C[C@@H]2CCO[C@@H]2C(F)(F)F)ccn1 (single isomer, unassigned) [SC-147b] | ≥ 7.00 |
| NC(=O)c1cc(NC(=O)c2c(C(F)(F)F)c(C3CC3)nn2C[C@@H]2CO[C@H](C(F)(F)F)C2)ccn1 (single isomer, unassigned) [SC-148a] | ≥ 7.00 |
| NC(=O)c1cc(NC(=O)c2c(C(F)(F)F)c(C3CC3)nn2C[C@@H]2CO[C@H](C(F)(F)F)C2)ccn1 (single isomer, unassigned) [SC-148b] | ≥ 7.00 |

| SMILES | pIC50 |
| --- | --- |
| CC(F)(F)c1nn(CC2CCC(F)(F)C2)c(C(=O)Nc2ccnc(C(N)=O)c2)c1Cl (single isomer, unassigned) [SC-149a] | ≥ 7.00 |
| CC(F)(F)c1nn(CC2CCC(F)(F)C2)c(C(=O)Nc2ccnc(C(N)=O)c2)c1Cl (single isomer, unassigned) [SC-149b] | ≥ 7.00 |
| CS(=O)(=O)c1cc(NC(=O)c2c(C(F)(F)F)c(C3CC3)nn2C[C@@H]2CCO[C@@H]2C(F)(F)F)ccn1 (single isomer, unassigned) [SC-150a] | ≥ 7.00 |
| CS(=O)(=O)c1cc(NC(=O)c2c(C(F)(F)F)c(C3CC3)nn2C[C@@H]2CCO[C@@H]2C(F)(F)F)ccn1 (single isomer, unassigned) [SC-150b] | ≥ 7.00 |
| NC(=O)c1cc(NC(=O)c2c(C(F)(F)F)c(C3CC3)nn2CC2CCC2(F)F)ccn1 (single isomer, unassigned) [SC-154a, 4-(3-cyclopropyl-1-((2,2-difluorocyclobutyl)methyl)-4-(trifluoromethyl)-1H-pyrazole-5-carboxamido)picolinamide] | ≥ 7.00 |
| NC(=O)c1cc(NC(=O)c2c(C(F)(F)F)c(C3CC3)nn2CC2CCC2(F)F)ccn1 (single isomer, unassigned) [SC-154b, 4-(3-cyclopropyl-1-((2,2-difluorocyclobutyl)methyl)-4-(trifluoromethyl)-1H-pyrazole-5-carboxamido)picolinamide] | ≥ 7.00 |
| NC(=O)c1cc(NC(=O)c2c(Cl)c(C(F)(F)F)nn2CC2CCC(F)(F)C2)ccn1 (single isomer, unassigned) [SC-160a] | ≥ 7.00 |
| NC(=O)c1cc(NC(=O)c2c(Cl)c(C(F)(F)F)nn2CC2CCC(F)(F)C2)ccn1 (single isomer, unassigned) [SC-160b] | ≥ 7.00 |
| Cc1c(C(C)(F)F)nn(CC2C[C@H]2C(F)(F)F)c1C(=O)Nc1ccnc(C(N)=O)c1 (single isomer, unassigned) [SC-204a] | ≥ 7.00 |
| Cc1c(C(C)(F)F)nn(C[C@H]2C[C@@H]2C(F)(F)F)c1C(=O)Nc1ccnc(C(N)=O)c1 (single isomer, unassigned) [SC-204b] | ≥ 7.00 |
| Cc1c(C(C)(F)F)nn(CC2(C)CCC(F)(F)C2)c1C(=O)Nc1ccnc(S(N)(=O)=O)c1 (single isomer, unassigned) [SC-212a] | ≥ 7.00 |
| Cc1c(C(C)(F)F)nn(C[C@@]2(C)CCC(F)(F)C2)c1C(=O)Nc1ccnc(S(N)(=O)=O)c1 (single isomer, unassigned) [SC-212b] | ≥ 7.00 |
| Cc1c(C(C)(F)F)nn(CC2(C)CCC(F)(F)C2)c1C(=O)Nc1ccnc(C(N)=O)c1 (single isomer, unassigned) [SC-214a] | ≥ 7.00 |
| Cc1c(C(C)(F)F)nn(CC2(C)CCC(F)(F)C2)c1C(=O)Nc1ccnc(C(N)=O)c1 (single isomer, unassigned) [SC-214b] | ≥ 7.00 |
| NC(=O)c1cc(NC(=O)c2c(C(F)(F)F)c(C3CC3)nn2CC2CC(OC(F)(F)F)C2)ccn1 (single isomer, unassigned) [SC-219a] | ≥ 7.00 |
| NC(=O)c1cc(NC(=O)c2c(C(F)(F)F)c(C3CC3)nn2CC2CC(OC(F)(F)F)C2)ccn1 (single isomer, unassigned) [SC-219b] | ≥ 7.00 |
| NC(=O)c1cc(NC(=O)c2c(C(F)(F)F)c(C3CC3)nn2CC2CC(C(F)F)C2)ccn1 (single isomer, unassigned) [SC-221a, 4-(3-cyclopropyl-1-((3-(difluoromethyl)cyclobutyl)methyl)-4-(trifluoromethyl)-1H-pyrazole-5-carboxamido)picolinamide] | ≥ 7.00 |

Reference: US11999699B2, “Substituted pyrazole amides” (GRUENENTHAL GMBH, priority 2021, dated 2024)
